Experimental data reported in publication PMC10313368 (The Journal of Clinical Investigation, 2023).

Assays:
HIF-2α [1] = molecular target: T1, HIF-2α (Mus musculus, UniProt P97481); assay: Western blot of HIF-2α protein accumulation in retina of OIR mice (P14); type: in vivo
T1 construct: from tissue; host or cells: retina of C57BL/6 OIR pups
Description: (§1) Immunoblot assays. Cells, neurosensory retina, and D120 retinal organoid lysates were subjected to 4–15% gradient SDS/PAGE (Invitrogen). Immunoblot (Western blot or WB) assays were performed as previously described (1).
(§2) Reverse transcription and quantitative real-time PCR. Total RNA was isolated from cultured cells or retinas with PureLinkTM RNA Mini Kit (Invitrogen #12183025), and cDNA was prepared with MuLV Reverse Transcriptase (Applied Biosystems). Quantitative real-time PCR was performed with Power SYBR Green PCR Master Mix (Applied Biosystems) and MyiQ Real-Time PCR Detection System (Bio-Rad). Normalization was done using cyclophilin A for mouse tissue and human cell lines. Primers are listed in Supplemental Table 2.
Angiogenesis array. […]
(§3) cDNA was prepared with QuantiTect® Reverse Transcription Kit (Qiagen, Cat# 205311). […]
4444554). […] The data were analyzed by using HPRT1 as endogenous […]
HUVEC cells, Euclidean distance was used to quantify the difference in qPCR screening. The Euclidean distance was calculated using “dist” function from R’s default stat library that measures the distance between 2 vectors (i.e., total qPCR expression values in control and treatment). […]
(§4) STZ-induced diabetes mouse model. […] Blood glucose was measured on experimental day 28 after 16 hours fasting and mice with blood glucose level > 250 mg/dL were considered […]

HIF-1α [2] = molecular target: HIF-1α (Homo sapiens, UniProt Q16665); assay: Immunoblot of HIF-1α accumulation in D120 hiPSC-derived retinal organoids in 1% O2; type: cell-based; parameters: endogenous in cells; settings: 1% O2 12 hours, 32-134D
Description: An hiPSC line derived from CD34^+ cord blood was used in this study (A18945, Thermo Fisher Scientific) ([70]). Undifferentiated hiPSCs and derived retinal organoids were routinely tested for mycoplasma contamination by PCR. Cell culture, retinal differentiation, and organoid formation were conducted as previously described ([71]). Retinal organoids at D120 were used for experiments.
(§5) Immunoblot assays. Cells, neurosensory retina, and D120 retinal organoid lysates were subjected
(§6) to 4–15% gradient SDS/PAGE (Invitrogen). Immunoblot (Western blot or WB) assays were
(§7) performed as previously described (1). […]

HIF-2α [3] = molecular target: HIF-2α (Homo sapiens, UniProt Q99814); assay: Immunoblot of HIF-2α accumulation in MIO-M1 cells cultured in hypoxia; type: cell-based; parameters: endogenous in cells; host or cells: MIO-M1; settings: MIO-M1, 1 μM 32-134D, 1% O2 4 hours
Description: MIO-M1, HUVECs, and ARPE19 cells were cultured in DMEM with 10% (vol/vol) FBS (Quality Biological) and 1% penicillin/streptomycin (Cellgro). A hypoxic chamber (Coy Laboratory Product Inc.; Two Glove Model) with 5% CO2, 94% N2, and 1% O2 gas concentration at 37°C was used to culture hypoxic cells. The control cells were cultured in an incubator maintained at 37°C, with 21% O2 and 5% CO2. […] Aflibercept was obtained from the Johns Hopkins University Pharmacy.
as §5, §6, §7

HIF-1α [4] = molecular target: T2, HIF-1α (Mus musculus, UniProt Q61221); assay: Western blot of HIF-1α in neurosensory retina of STZ-diabetic mice; type: in vivo; settings: IP 32-134D 40 or 80 mg/kg; Supplementary Figure 3
T2 construct: from tissue; host or cells: retina of C57BL/6 OIR pups
Description: as §1, §2
Angiogenesis array. Total RNA was isolated from MIO-MI cells (8 hours) and HUVECs (16 […]
as §3, §4
the peritoneal cavity of neonatal C57BL/6 mice and STZ mice at indicated times, and the retinal vasculature and lysates for WB and qPCR were assessed at P17. […]

T1 sequence (P97481 whole entry): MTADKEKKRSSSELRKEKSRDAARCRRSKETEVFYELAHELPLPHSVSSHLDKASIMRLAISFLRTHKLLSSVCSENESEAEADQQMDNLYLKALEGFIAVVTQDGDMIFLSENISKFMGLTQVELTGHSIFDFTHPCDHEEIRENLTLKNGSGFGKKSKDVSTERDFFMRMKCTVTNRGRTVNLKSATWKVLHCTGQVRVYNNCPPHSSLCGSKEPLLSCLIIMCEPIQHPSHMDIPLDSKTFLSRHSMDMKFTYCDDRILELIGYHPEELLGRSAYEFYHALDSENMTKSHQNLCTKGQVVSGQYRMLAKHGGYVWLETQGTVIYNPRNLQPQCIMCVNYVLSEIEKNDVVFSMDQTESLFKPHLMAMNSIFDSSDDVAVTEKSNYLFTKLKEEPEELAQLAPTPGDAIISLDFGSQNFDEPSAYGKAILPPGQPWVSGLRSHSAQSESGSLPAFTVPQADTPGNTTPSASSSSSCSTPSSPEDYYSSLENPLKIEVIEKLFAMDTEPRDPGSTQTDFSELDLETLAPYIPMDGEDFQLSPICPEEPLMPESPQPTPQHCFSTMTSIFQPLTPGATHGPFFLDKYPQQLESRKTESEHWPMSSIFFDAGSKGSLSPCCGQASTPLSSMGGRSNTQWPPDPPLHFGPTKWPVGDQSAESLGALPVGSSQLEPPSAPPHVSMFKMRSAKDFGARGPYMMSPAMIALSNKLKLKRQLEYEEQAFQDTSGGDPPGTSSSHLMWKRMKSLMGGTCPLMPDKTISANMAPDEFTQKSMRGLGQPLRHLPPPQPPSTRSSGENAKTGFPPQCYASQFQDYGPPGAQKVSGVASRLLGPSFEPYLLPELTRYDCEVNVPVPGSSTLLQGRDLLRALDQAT
T2 sequence (Q61221 whole entry): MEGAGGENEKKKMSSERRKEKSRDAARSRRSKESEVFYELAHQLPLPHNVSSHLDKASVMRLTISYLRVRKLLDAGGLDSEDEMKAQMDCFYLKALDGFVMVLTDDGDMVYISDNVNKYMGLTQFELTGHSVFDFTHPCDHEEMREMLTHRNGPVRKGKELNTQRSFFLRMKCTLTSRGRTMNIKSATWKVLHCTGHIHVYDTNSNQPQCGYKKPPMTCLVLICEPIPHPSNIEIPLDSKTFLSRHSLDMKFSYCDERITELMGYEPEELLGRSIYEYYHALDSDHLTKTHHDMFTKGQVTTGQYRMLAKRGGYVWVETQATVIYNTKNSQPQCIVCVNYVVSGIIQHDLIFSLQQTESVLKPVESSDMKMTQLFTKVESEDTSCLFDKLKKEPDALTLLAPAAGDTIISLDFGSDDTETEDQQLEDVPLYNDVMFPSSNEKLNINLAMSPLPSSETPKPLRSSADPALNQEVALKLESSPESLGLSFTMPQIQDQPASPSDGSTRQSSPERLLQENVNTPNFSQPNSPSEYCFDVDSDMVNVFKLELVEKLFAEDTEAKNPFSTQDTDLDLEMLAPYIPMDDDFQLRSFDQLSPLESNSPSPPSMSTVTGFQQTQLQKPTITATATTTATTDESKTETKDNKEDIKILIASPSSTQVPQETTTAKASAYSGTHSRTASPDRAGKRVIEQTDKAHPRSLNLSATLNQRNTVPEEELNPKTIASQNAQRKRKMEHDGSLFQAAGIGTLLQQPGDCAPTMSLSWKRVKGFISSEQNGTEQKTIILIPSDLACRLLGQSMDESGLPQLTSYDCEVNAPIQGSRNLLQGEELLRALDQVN
Sequence of HIF-1α (Homo sapiens, UniProt Q16665) (Q16665 whole entry): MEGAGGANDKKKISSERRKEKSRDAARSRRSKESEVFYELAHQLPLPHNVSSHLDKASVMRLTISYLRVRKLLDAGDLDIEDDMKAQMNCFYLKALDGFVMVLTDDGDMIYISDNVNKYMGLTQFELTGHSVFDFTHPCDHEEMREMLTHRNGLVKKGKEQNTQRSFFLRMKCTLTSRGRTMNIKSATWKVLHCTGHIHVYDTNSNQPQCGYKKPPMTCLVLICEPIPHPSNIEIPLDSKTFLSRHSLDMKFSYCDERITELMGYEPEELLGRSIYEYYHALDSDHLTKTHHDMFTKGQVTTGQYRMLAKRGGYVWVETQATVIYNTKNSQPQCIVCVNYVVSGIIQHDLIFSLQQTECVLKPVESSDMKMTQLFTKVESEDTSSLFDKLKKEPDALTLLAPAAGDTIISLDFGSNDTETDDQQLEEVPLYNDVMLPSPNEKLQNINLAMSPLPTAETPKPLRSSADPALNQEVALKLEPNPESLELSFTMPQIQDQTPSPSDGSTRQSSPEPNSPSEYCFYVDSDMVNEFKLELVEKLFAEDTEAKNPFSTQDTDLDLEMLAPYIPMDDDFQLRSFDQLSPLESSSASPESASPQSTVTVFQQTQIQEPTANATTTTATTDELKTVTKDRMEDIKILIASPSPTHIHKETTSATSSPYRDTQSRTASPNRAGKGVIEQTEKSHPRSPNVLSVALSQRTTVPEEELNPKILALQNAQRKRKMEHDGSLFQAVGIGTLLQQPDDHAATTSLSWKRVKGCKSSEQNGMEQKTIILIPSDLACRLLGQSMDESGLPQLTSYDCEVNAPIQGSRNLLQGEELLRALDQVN
Sequence of HIF-2α (Homo sapiens, UniProt Q99814) (Q99814 whole entry): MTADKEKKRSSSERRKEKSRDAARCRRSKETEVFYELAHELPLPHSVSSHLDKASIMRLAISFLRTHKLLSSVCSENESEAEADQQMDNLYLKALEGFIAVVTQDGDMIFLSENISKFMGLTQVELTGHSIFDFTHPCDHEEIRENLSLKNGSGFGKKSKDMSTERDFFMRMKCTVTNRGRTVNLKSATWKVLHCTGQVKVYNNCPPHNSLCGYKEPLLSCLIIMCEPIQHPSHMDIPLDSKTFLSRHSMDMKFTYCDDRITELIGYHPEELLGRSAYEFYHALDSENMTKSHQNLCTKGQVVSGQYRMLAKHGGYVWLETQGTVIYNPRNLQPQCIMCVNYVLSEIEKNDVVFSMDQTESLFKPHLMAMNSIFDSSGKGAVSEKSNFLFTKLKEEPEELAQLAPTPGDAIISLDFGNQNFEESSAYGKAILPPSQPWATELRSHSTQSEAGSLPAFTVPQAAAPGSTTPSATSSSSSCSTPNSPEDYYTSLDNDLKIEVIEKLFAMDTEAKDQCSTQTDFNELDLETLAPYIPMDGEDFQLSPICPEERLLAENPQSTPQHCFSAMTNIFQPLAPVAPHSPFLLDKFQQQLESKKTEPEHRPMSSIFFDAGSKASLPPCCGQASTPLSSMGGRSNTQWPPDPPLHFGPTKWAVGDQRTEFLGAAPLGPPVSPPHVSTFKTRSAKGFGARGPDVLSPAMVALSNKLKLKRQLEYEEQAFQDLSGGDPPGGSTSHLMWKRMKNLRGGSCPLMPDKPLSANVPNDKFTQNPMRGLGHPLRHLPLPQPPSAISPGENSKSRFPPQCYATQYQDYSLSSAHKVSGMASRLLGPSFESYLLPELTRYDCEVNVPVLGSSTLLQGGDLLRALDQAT

## Brc1ccc2c(-c3csc(-c4c[nH]c5c(Br)cccc45)n3)c[nH]c2c1 [32-134D, 4-(6-bromo-1H-indol-3-yl)-2-(7-bromo-1H-indol-3-yl)thiazole]
HIF-2α [1]; single i.p. injection 20 mg/kg, P14
  HIF-2α protein accumulation in OIR mice: reduction
HIF-2α [1]; single intraocular injection 14 ng at P12, P14
  accumulation of HIF-2α in OIR mice: effectively reduced
HIF-1α [2]
  accumulation of HIF-1α protein: effectively prevented accumulation
HIF-2α [3]
  HIF-2α protein accumulation in response to hypoxia: decreased
HIF-1α [4]
  HIF-1α expression in neurosensory retina of STZ mice: inhibits HIF
